No end group written: not given here.
Columns and labels:
Assay type in all cases: cell-based, human
PBL [1] = experiment: Proliferation of PBL, DC indirect presentation (peptide-pulsed autologous DC)
Description: (§1) Human PBMC were separated from buffy coat samples of naive donors using Ficoll UNI-SEPmaxi tube. Separated cells were suspended in RPMI medium supplemented with 10% FCS, L-Glutamine, Sodium Pyruvate, MEM-EAGLE non-essential amino-acids, HEPES and Gentamycin Sulphate (Bet-Haemek Industries, IL) and cultivated for 4 h at 37° C. in a culture dish (Corning 150 mm×25 mm). Adherent cells were collected and cultured for 7 days in serum free DCCM-1 medium supplemented with L-Glutamine, huIL-4 (1000 IU/ml) (Cytolab IL) and GM-CSF-80 ug/ml (Cytolab IL). On day seven floating cells were collected and loaded with 50 ug/ml of examined peptide for 18 h at 37° C.
(§2) Proliferation analysis was conducted in three different methods. In all three methods, plates were cultured for 3-5 days under visual control and then 0.5 […]Cu/well of 3[H] (Amersham) was added for additional culture of to 18 h at 37° C. In the last step, plates were harvested and the radioactive counts were measured in a □ counter. • 1. DC indirect presentation: In the first method, 100 µl of 2×10^6 thawed PBL were placed in U-shape Bottom 96 well plate (Nunc) with RPMI medium supplemented with 5% H AB serum, L-Glutamine, Sodium Pyruvate, MEM-EAGLE non-essential amino-acids, HEPES and Gentamycin. At the next stage 100 µl of 25×10^4 peptide-pulsed DC were added to each three wells of PBL and underwent proliferation analysis as described above. • 2. PBL direct presentation: In the 2nd method, 100 µl of 2×10^6 PBL were placed in Flat Bottom 96 well plates (Corning) and stimulated with different concentrations (0.05 ug/ml-2 ug/ml) of peptides. In the next step the cells underwent proliferation analysis as described above. • 3. PBMC direct presentation: In third method PNMC were used under similar conditions as described for the second method.
In the first set of experiments, the 21mer ImMucin, its different 9mer epitopes and other control epitopes (Table 3) were evaluated in proliferation assays with the aim of finding their optimal mode of presentation, stimulated dose as well as their peak of activity (time wise).
To evaluate the most efficient method for priming of PBLs with the different peptides, the following methods were compared:
a. In-direct presentation of the peptide via Autologues-pulsed DC
(§3) Five experiments were performed according to the protocol described in material and methods with buffy-coat enriched PBLs obtained from six different naive donors (obtained from the Israeli blood bank).

PBMC = experiment: Proliferation, direct presentation of peptide via PBMC (monocytes)
Description: as §2
b. Direct presentation of the peptides via PBMC i.e. monocytes
as §3

PBL [2] = experiment: ELISA of cytokine secretion by PBL stimulated once with peptide-pulsed DC
Description: as §1
Cytokine release was studied during the culture of stimulated T-cells. The evaluated samples were collected from the T cell culture medium on day 2, 3, and 5 and stored until use at −20° C.
[…] of the selected capture antibody (e.g. anti-Hu IFN-Gamma, or anti-Hu TNF-alfa or anti IL-2) were added to each well at the final concentration of 5 μg/ml in PBS. Plates were incubated for 2 h at R.T. or over night at 4° C. Next, […] of blocking solution were added for an incubation of 2 h at R.T. […] of evaluated samples were added in duplicate into 2 wells for 2 hours at RT. After 2 h of incubation at R.T plates were washed λ4 times in washing solution. In the next step, a Biotin-conjugated detection antibody (relevant to coated antibody) was added at a final concentration of 10 μg/ml in total volume of 100 μl for 1 h at R.T. Finally, 100 μl/well working dilution (1:10000 in Blocker solution) of Streptavidin-HRP were added to each well and incubated for 1 h at R.T.
Plates were washed λ6 times with PBS-Tween (0.4%) and 100 μl/well of TMB/E Solution (CHEMICON, Catalog #ES001) was added. The plates were then exposed until blue color appeared in the wells of the positive control and no color was detected in the blank wells. To stop the color reaction, 50 μl/well of 10% of Sulfuric acid was added. The plates were counted in ELISA-Reader using a 450 nm filter.

[3] = test system: ImMucin specific T-cell subpopulation; experiment: Proliferation of the ImMucin-specific T-cell subpopulation after three stimulations; settings: one out of two experiments, four donors
From the text: Thawed PBLs underwent 1st stimulation with ImMucin pulsed Autologues DC at a ratio of 20:1 and cultured for 7 days in dedicated T cell Medium. T cell medium contained RPMI medium supplemented with 10% FCS, L-Glutamine, Sodium Pyruvate, MEM-EAGLE non-essential amino-acids, HEPES and Gentamycin Sulphate (Bet-Haemek Industries, IL) as well as with 50 IU/ml of recombinant IL-7 (Cytolab IL). For the second stimulation, PBL were transferred to adherent autologues ImMucin-pulsed PBMC and cultured for additional 5 days in T cell Medium. At the end of the 5 days, medium was partial replaced with fresh medium containing 1 ug/ml of ImMucin and 50 IU/ml IL-2 for a third stimulation of 48 h at 37° C. Following the last stimulation ImMucin T cell line was checked for immune activation properties.
as §2
For that purpose, an enriched ImMucin-specific T cell subpopulation was produced via repeated stimulation with ImMucin. The specificity of the subpopulation for ImMucin, as well as to the other VXL epitopes, was examined using proliferation assays, cytokine release assays, FACS analysis in which the percentage and type of cells enriched during the enrichment process was analyzed, and using a CTL assay against selected target cells.
For producing the specific T cell subpopulation PBL were stimulated three times for 7, 5 and 2 days with ImMucin presented via DC and PBMC. Following the 3rd stimulation the cells were evaluated against the different VXL epitopes.

[4] = optimal dose required for PBL activation, average of 5 experiments, six donors
[5] = peptide DC ratio 16:1, one out of five experiments, six donors
[6] = peptide pulsed DC ratio 16:1, one out of two experiments, two donors (Table 12)

## MTPGTQSPFFLLLLLTVLTVV [ImMucin]
PBL [1]; naive donors, CPM sample / CPM control, representative of 5 experiments
  PBL Index of stimulation (SI) via DC: 4
PBL [1]; one out of five experiments, six donors
  IS (SI of the peptides as indicated in Table 7): 4
PBL [1]; [4]
  Optimal dose via DC: 12.5-25 × × 10e6/well
PBL [1]; two donors
  IS (as indicated in Table 12): 2.8
PBL [1]; visual inspection by light microscopy daily during 5 days, average of 5 experiments
  Peak of Proliferation (Hours) via DC: 96 h
PBMC; naive donors, representative of 5 experiments
  PBL Index of stimulation (SI) via PBMC: 2
PBMC; [4]
  Optimal dose via PBMC: 0.05 to 1 µg/mL
PBMC; visual inspection daily during 5 days, average of 5 experiments
  Peak of Proliferation (Hours) via PBMC: 120 h
PBL [2]; [5]
  IL-2: 3.62 ng/mL
  TNF-Alfa: 11.6 ng/mL
PBL [2]; [6]
  IFN-gamma: 0.5 ng/mL
  TNF-Alfa: 11.6 ng/mL
[3]
  IS (Average): 3.2
  IS (Range): 2.2-4.2

— US11179452B2, “Antigen specific multi epitope vaccines” (priority 2006, dated 2021)
